Legend:
Assay type in all cases: functional
K562 = assay: Cytotoxicity against human K562 cells assessed as growth inhibition after 48 hrs by sulforhodamine B assay; details: K562, 48 h
A549 [1] = assay: Cytotoxicity against human A549/ATCC cells assessed as growth inhibition after 48 hrs by sulforhodamine B assay; details: A549, 48 h
HCT-116 [2] = assay: Cytotoxicity against human HCT116 cells assessed as growth inhibition after 48 hrs by sulforhodamine B assay; details: HCT-116, 48 h
Malme-3M [3] = assay: Cytotoxicity against human MALME-3M cells assessed as growth inhibition after 48 hrs by sulforhodamine B assay
M14 = assay: Cytotoxicity against human M14 cells assessed as growth inhibition after 48 hrs by sulforhodamine B assay; details: M14, 48 h
OVCAR-8 [4] = assay: Cytotoxicity against human OVCAR8 cells assessed as growth inhibition after 48 hrs by sulforhodamine B assay; details: OVCAR-8, 48 h
CCRF-CEM [5] = assay: Cytotoxicity against human CCRF-CEM cells assessed as cell growth at 0.01 uM after 48 hrs by sulforhodamine B assay relative to control; details: read-out: Activity
MDA-MB-435 = assay: Cytotoxicity against human MDA-MB-435 cells assessed as cell growth at 0.01 uM after 48 hrs by sulforhodamine B assay relative to control; details: MDA-MB-435, 48 h, read-out: Activity
SF-268 = assay: Cytotoxicity against human SF268 cells assessed as cell growth at 0.01 uM after 48 hrs by sulforhodamine B assay relative to control; details: SF-268, 48 h, read-out: Activity
HT-29 [6] = assay: Cytotoxicity against human HT-29 cells assessed as cell growth at 0.01 uM after 48 hrs by sulforhodamine B assay relative to control; details: HT-29, 48 h, read-out: Activity
A549 [7] = assay: Cytotoxicity against human A549/ATCC cells assessed as cell growth at 0.01 uM after 48 hrs by sulforhodamine B assay relative to control; details: A549, 48 h, read-out: Activity
RPMI-8226 [8] = assay: Cytotoxicity against human RPMI8226 cells assessed as cell growth at 0.01 uM after 48 hrs by sulforhodamine B assay relative to control; details: RPMI-8226, 48 h, read-out: Activity
PC-3 = assay: Cytotoxicity against human PC3 cells assessed as cell growth at 0.01 uM after 48 hrs by sulforhodamine B assay relative to control; details: PC-3, 48 h, read-out: Activity
HCT-15 = assay: Cytotoxicity against human HCT15 cells assessed as cell growth at 0.1 uM after 48 hrs by sulforhodamine B assay relative to control; details: HCT-15, 48 h, read-out: Activity
HT-29 [9] = assay: Cytotoxicity against human HT-29 cells assessed as cell growth at 0.1 uM after 48 hrs by sulforhodamine B assay relative to control; details: HT-29, 48 h, read-out: Activity
SK-MEL-28 = assay: Cytotoxicity against human SK-MEL-28 cells assessed as cell growth at 0.1 uM after 48 hrs by sulforhodamine B assay relative to control; details: SK-MEL-28, 48 h, read-out: Activity
MDA-MB-468 = assay: Cytotoxicity against human MDA-MB-468 cells assessed as cell growth at 0.1 uM after 48 hrs by sulforhodamine B assay relative to control; details: MDA-MB-468, 48 h, read-out: Activity
CCRF-CEM [10] = assay: Cytotoxicity against human CCRF-CEM cells assessed as cell growth at 1 uM after 48 hrs by sulforhodamine B assay relative to control; details: read-out: Activity
NCI-H460 = assay: Cytotoxicity against human NCI-H460 cells assessed as cell growth at 1 uM after 48 hrs by sulforhodamine B assay relative to control; details: NCI-H460, 48 h, read-out: Activity
SW-620 [11] = assay: Cytotoxicity against human SW620 cells assessed as cell growth at 1 uM after 48 hrs by sulforhodamine B assay relative to control; details: SW-620, 48 h, read-out: Activity
UACC-257 = assay: Cytotoxicity against human UACC257 cells assessed as cell growth at 1 uM after 48 hrs by sulforhodamine B assay relative to control; details: UACC-257, 48 h, read-out: Activity
OVCAR-8 [12] = assay: Cytotoxicity against human OVCAR8 cells assessed as cell growth at 1 uM after 48 hrs by sulforhodamine B assay relative to control; details: OVCAR-8, 48 h, read-out: Activity
NCI-H226 [13] = assay: Cytotoxicity against human NCI-H226 cells assessed as cell growth at 10 uM after 48 hrs by sulforhodamine B assay relative to control; details: NCI-H226, 48 h, read-out: Activity
SW-620 [14] = assay: Cytotoxicity against human SW620 cells assessed as cell growth at 10 uM after 48 hrs by sulforhodamine B assay relative to control; details: SW-620, 48 h, read-out: Activity
U-251 = assay: Cytotoxicity against human U251 cells assessed as cell growth at 10 uM after 48 hrs by sulforhodamine B assay relative to control; details: U-251, 48 h, read-out: Activity
Malme-3M [15] = assay: Cytotoxicity against human MALME-3M cells assessed as cell growth at 10 uM after 48 hrs by sulforhodamine B assay relative to control; details: read-out: Activity
OVCAR-8 [16] = assay: Cytotoxicity against human OVCAR8 cells assessed as cell growth at 10 uM after 48 hrs by sulforhodamine B assay relative to control; details: OVCAR-8, 48 h, read-out: Activity
DU-145 = assay: Cytotoxicity against human DU145 cells assessed as cell growth at 10 uM after 48 hrs by sulforhodamine B assay relative to control; details: DU-145, 48 h, read-out: Activity
RPMI-8226 [17] = assay: Cytotoxicity against human RPMI8226 cells assessed as cell growth at 100 uM after 48 hrs by sulforhodamine B assay relative to control; details: RPMI-8226, 48 h, read-out: Activity
NCI-H226 [18] = assay: Cytotoxicity against human NCI-H226 cells assessed as cell growth at 100 uM after 48 hrs by sulforhodamine B assay relative to control; details: NCI-H226, 48 h, read-out: Activity
COLO 205 = assay: Cytotoxicity against human COLO205 cells assessed as cell growth at 100 uM after 48 hrs by sulforhodamine B assay relative to control; details: COLO 205, 48 h, read-out: Activity
HCT-116 [19] = assay: Cytotoxicity against human HCT116 cells assessed as cell growth at 100 uM after 48 hrs by sulforhodamine B assay relative to control; details: HCT-116, 48 h, read-out: Activity
SF-539 = assay: Cytotoxicity against human SF539 cells assessed as cell growth at 100 uM after 48 hrs by sulforhodamine B assay relative to control; details: SF-539, 48 h, read-out: Activity
SNB-19 = assay: Cytotoxicity against human SNB19 cells assessed as cell growth at 100 uM after 48 hrs by sulforhodamine B assay relative to control; details: SNB-19, 48 h, read-out: Activity
Malme-3M [20] = assay: Cytotoxicity against human MALME-3M cells assessed as cell growth at 100 uM after 48 hrs by sulforhodamine B assay relative to control; details: read-out: Activity
SN12C = assay: Cytotoxicity against human SN12C cells assessed as cell growth at 100 uM after 48 hrs by sulforhodamine B assay relative to control; details: read-out: Activity

COc1cc2c(cc1OC)C(=O)/C(=C/c1cc(-c3ccc4c(c3)OCO4)n[nH]1)C2
GI50 (K562): 1.59 µM | LC50 (concentration killing 50% of cells) (K562): > 100 µM | TGI (K562): > 100 µM | GI50 (A549 [1]): 1.96 µM | LC50 (concentration giving 50% net cell kill) (A549 [1]): 37.1 µM | TGI (A549 [1]): 5.45 µM | GI50 (HCT-116 [2]): 1.03 µM | LC50 (HCT-116 [2]): 6.31 µM | TGI (HCT-116 [2]): 2.54 µM | GI50 (Malme-3M [3]): 1.74 µM | LC50 (Malme-3M [3]): 7.43 µM | TGI (Malme-3M [3]): 3.6 µM | GI50 (M14): 1.82 µM | LC50 (concentration killing 50% of cells) (M14): 6.34 µM | TGI (M14): 3.4 µM | GI50 (OVCAR-8 [4]): 1.57 µM | LC50 (OVCAR-8 [4]): 5.93 µM | TGI (OVCAR-8 [4]): 3.05 µM | growth at 0.01 µM (CCRF-CEM [5]): 97% | growth at 0.01 µM (MDA-MB-435): 102% | growth at 0.01 µM (SF-268): 95% | growth at 0.01 µM (HT-29 [6]): 98% | growth at 0.01 µM (A549 [7]): 98% | growth at 0.01 µM (RPMI-8226 [8]): 100% | growth at 0.01 µM (PC-3): 94% | growth at 0.1 µM (HCT-15): 93% | growth at 0.1 µM (HT-29 [9]): 103% | growth at 0.1 µM (SK-MEL-28): 101% | growth at 0.1 µM (MDA-MB-468): 83% | growth at 1 µM (CCRF-CEM [10]): 55% | growth at 1 µM (NCI-H460): 82% | growth at 1 µM (SW-620 [11]): 66% | growth at 1 µM (UACC-257): 94% | growth at 1 µM (OVCAR-8 [12]): 84% | growth at 10 µM (NCI-H226 [13]): -72% | growth at 10 µM (SW-620 [14]): -56% | growth at 10 µM (U-251): -97% | growth at 10 µM (Malme-3M [15]): -70% | growth at 10 µM (OVCAR-8 [16]): -89% | growth at 10 µM (DU-145): -92% | growth at 100 µM (RPMI-8226 [17]): -54% | growth at 100 µM (NCI-H226 [18]): -46% | growth at 100 µM (COLO 205): -88% | growth at 100 µM (HCT-116 [19]): -52% | growth at 100 µM (SF-539): -94% | growth at 100 µM (SNB-19): -94% | growth at 100 µM (Malme-3M [20]): -81% | growth at 100 µM (SN12C): -96%
